Patent US9981928B2, “Aryl sulfide derivatives and aryl sulfoxide derivatives as acaricides and insecticides” (BAYER CROPSCIENCE AKTIENGESELLSCHAFT, priority 2013, dated 2018)
Where two headings read alike, the source gives them in different places. Each block holds one compound with its values, some of them ahead of it.

How the values were obtained:
[1] = test system: cattle ticks (Boophilus microplus); assay: Boophilus microplus injection test (BOOPMI inj); type: in vivo; details: injection into the abdomen; application rate 20 μg/animal; assessed after 7 days
Protocol: Boophilus microplus—Injection Test (BOOPMI inj)
Solvent: dimethyl sulfoxide
To produce a suitable preparation of active compound, 10 mg of active compound are mixed with 0.5 ml of solvent and the concentrate is diluted with solvent to the desired concentration.
1 μl of the active compound solution is injected into the abdomen of 5 engorged adult female cattle ticks (Boophilus microplus). The animals are transferred into dishes and kept in a climate-controlled room.
Efficacy is assessed after 7 days by laying of fertile eggs. Eggs which are not visibly fertile are stored in a climate-controlled cabinet until the larvae hatch after about 42 days. An efficacy of 100% means that none of the ticks has laid any fertile eggs; 0% means that all the eggs are fertile.

[2] = log P determination by HPLC on reversed-phase columns (C 18), analogously to OECD Guideline 117; type: physicochemical; details: for chromatographic logP: reversed-phase C18 HPLC column; for logP (HCOOH): LC-MS in the acidic range, pH 2.7, 0.1% aqueous formic acid / acetonitrile; for logP (HCOOH) / logP (neutral): HPLC reversed-phase C 18; for logP (neutral): LC-MS in the neutral range, pH 7.8, 0.001 molar aqueous ammonium hydrogencarbonate / acetonitrile
Method in brief: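 Reversed-phase C18 HPLC per OECD 117 with LC-MS detection and a linear 10→95% acetonitrile gradient. Acidic log P run at pH 2.7 with 0.1% formic acid in both eluents. Neutral log P run at pH 7.8 with 0.001 M aqueous ammonium hydrogencarbonate.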

[3] = test system: greenhouse red spider mite (Tetranychus urticae); assay: Tetranychus urticae spray test, OP-resistant (TETRUR), bean leaf disks; type: in vivo; details: bean leaf disks, after 6 days; for pest or weed control at 500 g/ha: Tetranychus urticae, foliar, 144 h, read-out: efficacy in %
Method in brief: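 Efficacy (% mites killed) read 6 days after spraying infested Phaseolus vulgaris leaf disks. Compound preparation: acetone and dimethylformamide solvent, made up in water with 1000 ppm alkylaryl polyglycol ether emulsifier; OP-resistant mite strain, all life stages.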

[4] = test system: southern root-knot nematode (Meloidogyne incognita); assay: Meloidogyne incognita test (MELGIN); type: in vivo; details: lettuce in sand; application rate 20 ppm; after 14 days
Protocol: Meloidogvne incognita test (MELGIN)
Solvent: 125.0 parts by weight of acetone
To produce a suitable preparation of active compound, 1 part by weight of active compound is mixed with the stated amount of solvent and the concentrate is diluted with water to the desired concentration.
Vessels are filled with sand, active compound solution, an egg/larvae suspension of the southern root-knot nematode (Meloidogyne incognita) and lettuce seeds. The lettuce seeds germinate and the plants develop. The galls develop on the roots.
After 14 days, the nematicidal efficacy in % is determined by the formation of galls. 100% means that no galls were found; 0% means that the number of galls on the treated plants corresponds to the untreated control.

[5] = acidic range, pH 2.7, 0.1% aqueous formic acid and acetonitrile, read-out: log P[a] / log P(HCOOH)
[6] = neutral range, pH 7.8, 0.001 molar aqueous ammonium hydrogencarbonate and acetonitrile, read-out: log P[b] / log P(neutral)

- chromatographic logP [2, 5]: 2.7
- chromatographic logP [2, 6]: 2.64
SMILES: Cc1cc(F)c(N2C(=O)CSC2=NCC(F)(F)F)cc1[S+]([O-])CC(F)(F)F (stereo not shown) [Example 13, 3-{2-Fluoro-4-methyl-5-[(2,2,2-trifluoroethyl)sulfinyl]phenyl}-2-[(2,2,2-trifluoroethyl)imino]-1,3-thiazolidin-4-one]
- efficacy (laying of fertile eggs) [1]: 100%
- pest or weed control at 500 g/ha ([3]; application rate 500 g/ha): 90%
- nematicidal efficacy in % (formation of galls) [4]: 90%

SMILES: Cn1c(=O)n(C)n(-c2cc([S+]([O-])CC(F)(F)F)c(Cl)cc2F)c1=O (stereo not shown) [Example 29]
- logP (HCOOH) [2]: 1.93
- logP (neutral) [2]: 1.91
- efficacy in % ([3]; application rate 500 g/ha): 90%
- nematicidal efficacy in % (formation of galls) [4]: 90%

SMILES: Cn1c(=O)n(C)n(-c2cc(SCC(F)(F)F)c(Cl)cc2F)c1=O [Example 30]
- logP (HCOOH) [2]: 2.71
- logP (neutral) [2]: 2.67
- efficacy in % ([3]; application rate 500 g/ha): 100%
- nematicidal efficacy in % (formation of galls) [4]: 90%

SMILES: Cc1cc(C)c([S+]([O-])CC(F)(F)F)cc1-n1c(=O)n(C)c(=O)n1C (stereo not shown) [Example 33]
- logP (HCOOH) [2]: 1.75
- logP (neutral) [2]: 1.70
- efficacy in % ([3]; application rate 500 g/ha): 90%
- nematicidal efficacy in % (formation of galls) [4]: 90%

SMILES: Cc1cc(F)c(-n2c(=O)n(C3CC3)c(=O)n2C)cc1[S+]([O-])CC(F)(F)F (stereo not shown) [Example 34]
- efficacy (laying of fertile eggs) [1]: 100%
- logP (HCOOH) [2]: 1.91
- logP (neutral) [2]: 1.88
- efficacy in % ([3]; application rate 500 g/ha): 100%
- nematicidal efficacy in % (formation of galls) [4]: 90%

SMILES: Cc1cc(F)c(-n2c(=O)n(C3CC3)c(=O)n2C)cc1SCC(F)(F)F [Example 35]
- efficacy (laying of fertile eggs) [1]: 100%
- logP (HCOOH) [2]: 2.83
- logP (neutral) [2]: 2.81
- efficacy in % ([3]; application rate 500 g/ha): 100%
- nematicidal efficacy in % (formation of galls) [4]: 100%

SMILES: Cc1ccc(-n2c(=O)n(C3CC3)c(=O)n2C)cc1SCC(F)(F)F [Example 36]
- logP (HCOOH) [2]: 2.89
- logP (neutral) [2]: 2.87
- efficacy in % ([3]; application rate 500 g/ha): 100%
- nematicidal efficacy in % (formation of galls) [4]: 100%

SMILES: Cc1ccc(-n2c(=O)n(C3CC3)c(=O)n2C)cc1[S+]([O-])CC(F)(F)F (stereo not shown) [Example 37]
- efficacy (laying of fertile eggs) [1]: 100%
- logP (HCOOH) [2]: 1.89
- logP (neutral) [2]: 1.87
- efficacy in % ([3]; application rate 500 g/ha): 100%
- nematicidal efficacy in % (formation of galls) [4]: 100%

SMILES: Cn1c(=O)n(C2CC2)c(=O)n1-c1cc([S+]([O-])CC(F)(F)F)c(Cl)cc1F (stereo not shown) [Example 38]
- logP (HCOOH) [2]: 2.18
- logP (neutral) [2]: 2.16
- efficacy in % ([3]; application rate 500 g/ha): 100%
- nematicidal efficacy in % (formation of galls) [4]: 100%

SMILES: COc1ccc(-n2c(=O)n(C3CC3)c(=O)n2C)cc1[S+]([O-])CC(F)(F)F (stereo not shown) [Example 41]
- logP (HCOOH) [2]: 1.77
- logP (neutral) [2]: 1.75
- efficacy in % ([3]; application rate 500 g/ha): 90%
- nematicidal efficacy in % (formation of galls) [4]: 90%

SMILES: COc1ccc(-n2c(=O)n(C3CC3)c(=O)n2C)cc1SCC(F)(F)F [Example 42]
- logP (HCOOH) [2]: 2.51
- logP (neutral) [2]: 2.46
- efficacy in % ([3]; application rate 500 g/ha): 100%
- nematicidal efficacy in % (formation of galls) [4]: 90%

SMILES: Cc1cc(C)c([S+]([O-])CC(F)(F)F)cc1-n1c(=O)n(C2CC2)c(=O)n1C (stereo not shown) [Example 47]
- efficacy (laying of fertile eggs) [1]: 100%
- logP (HCOOH) [2]: 1.98
- logP (neutral) [2]: 1.93
- efficacy in % ([3]; application rate 500 g/ha): 90%

SMILES: C=CCn1c(=O)n(C2CC2)c(=O)n1-c1ccc(C)c(SCC(F)(F)F)c1 [Example 48]
- efficacy (laying of fertile eggs) [1]: 80%
- logP (HCOOH) [2]: 3.37
- logP (neutral) [2]: 3.31
- efficacy in % ([3]; application rate 500 g/ha): 100%

SMILES: Cn1c(=O)n(C2CC2)c(=O)n1-c1ccc(C(F)(F)F)c([S+]([O-])CC(F)(F)F)c1 (stereo not shown) [Example 54]
- efficacy (laying of fertile eggs) [1]: 100%
- logP (HCOOH) [2]: 2.63
- logP (neutral) [2]: 2.58
- efficacy in % ([3]; application rate 500 g/ha): 100%
- nematicidal efficacy in % (formation of galls) [4]: 90%

SMILES: CCn1c(=O)n(C)n(-c2cc([S+]([O-])CC(F)(F)F)c(C)cc2F)c1=O (stereo not shown) [Example 74]
- logP (HCOOH) [2]: 1.93
- logP (neutral) [2]: 1.91
- efficacy in % ([3]; application rate 100 g/ha): 90%
- nematicidal efficacy in % (formation of galls) [4]: 90%

SMILES: C=CCn1c(=O)n(C)n(-c2cc([S+]([O-])CC(F)(F)F)c(C)cc2F)c1=O (stereo not shown) [Example 80]
- logP (HCOOH) [2]: 2.07
- logP (neutral) [2]: 2.03
- efficacy in % ([3]; application rate 500 g/ha): 100%
- nematicidal efficacy in % (formation of galls) [4]: 90%

SMILES: C=CCn1c(=O)n(C)n(-c2cc(SCC(F)(F)F)c(C)cc2F)c1=O [Example 81]
- logP (HCOOH) [2]: 3.05
- logP (neutral) [2]: 3.01
- efficacy in % ([3]; application rate 100 g/ha): 100%
- nematicidal efficacy in % (formation of galls) [4]: 90%

SMILES: CCn1c(=O)n(C)n(-c2cc(SCC(F)(F)F)c(C)cc2F)c1=O [Example 83]
- logP (HCOOH) [2]: 2.92
- logP (neutral) [2]: 2.88
- efficacy in % ([3]; application rate 500 g/ha): 100%
- nematicidal efficacy in % (formation of galls) [4]: 100%

- chromatographic logP [2, 5]: 2.66
SMILES: Cc1cc(F)c(N2CCOC2=O)cc1SCC(F)(F)F [Example 104, 3-[2-Fluoro-4-methyl-5-(2,2,2-trifluoroethylsulfanyl)phenyl]oxazolidin-2-one]
- efficacy (laying of fertile eggs) [1]: 100%
- pest or weed control at 500 g/ha ([3]; application rate 500 g/ha): 100%

SMILES: Cc1cc(F)c(N2C(=O)CSC2=NCC(C)C)cc1SCC(F)(F)F [Example 115]
- efficacy (laying of fertile eggs) [1]: 100%
- logP (HCOOH) [2]: 4.33
- logP (neutral) [2]: 4.31
- efficacy in % ([3]; application rate 500 g/ha): 100%

SMILES: CCn1c(=O)n(C2CC2)c(=O)n1-c1cc(SCC(F)(F)F)c(C)cc1F [Example 127]
- logP (HCOOH) [2]: 3.19
- logP (neutral) [2]: 3.17
- efficacy in % ([3]; application rate 500 g/ha): 100%
- nematicidal efficacy in % (formation of galls) [4]: 90%

- chromatographic logP [2, 5]: 1.89
- chromatographic logP [2, 6]: 1.85
SMILES: Cc1cc(F)c(N2C(=O)C(C)(C)C(=O)N2C)cc1[S+]([O-])CC(F)(F)F (stereo not shown) [Example 177, 1-{2-Fluoro-4-methyl-5-[(2,2,2-trifluoroethyl)sulfinyl]phenyl}-2,4,4-trimethylpyrazolidine-3,5-dione]
- pest or weed control at 500 g/ha ([3]; application rate 500 g/ha): 90%
- nematicidal efficacy in % (formation of galls) [4]: 90%

SMILES: Cc1cc(F)c(N2C(=O)C3(CCC3)C(=O)N2C)cc1SCC(F)(F)F [Example 179]
- logP (HCOOH) [2]: 3.00
- logP (neutral) [2]: 2.96
- efficacy in % ([3]; application rate 500 g/ha): 100%
- nematicidal efficacy in % (formation of galls) [4]: 90%

- chromatographic logP [2, 5]: 3.44
- chromatographic logP [2, 6]: 3.39
SMILES: Cc1cc(F)c(-n2c(=O)n(C3CC3)c(=S)n2C)cc1SCC(F)(F)F [Example 181, 4-Cyclopropyl-2-{2-fluoro-4-methyl-5-[(2,2,2-trifluoroethyl)sulfanyl]phenyl}-1-methyl-5-thioxo-1,2,4-triazolidin-3-one]
- pest or weed control at 500 g/ha ([3]; application rate 500 g/ha): 90%
- nematicidal efficacy in % (formation of galls) [4]: 90%

SMILES: Cc1cc(F)c(N2CC(=O)N(C)C2=O)cc1[S+]([O-])CC(F)(F)F (stereo not shown) [Example 208]
- efficacy (laying of fertile eggs) [1]: 100%
- logP (HCOOH) [2]: 1.68
- efficacy in % ([3]; application rate 500 g/ha): 100%
- nematicidal efficacy in % (formation of galls) [4]: 90%

SMILES: Cc1cc(F)c(N2CC(=O)N(C3CC3)C2=O)cc1[S+]([O-])CC(F)(F)F (stereo not shown) [Example 209]
- efficacy (laying of fertile eggs) [1]: 100%
- logP (HCOOH) [2]: 1.92
- efficacy in % ([3]; application rate 500 g/ha): 100%
- nematicidal efficacy in % (formation of galls) [4]: 90%

SMILES: Cc1cc(F)c(N2CC(=O)N(C3CC3)C2=O)cc1SCC(F)(F)F [Example 210]
- efficacy (laying of fertile eggs) [1]: 100%
- logP (HCOOH) [2]: 2.91
- efficacy in % ([3]; application rate 500 g/ha): 100%
- nematicidal efficacy in % (formation of galls) [4]: 90%
